Assay results reported in ChEMBL document CHEMBL1136282, “Design and synthesis of small chemical inhibitors containing different scaffolds for lck SH2 domain” (Bioorg Med Chem Lett, 2003).
Square brackets hold non-standard residues; d marks the D form. Peptide text beside a SMILES is read from it. pY = N[C@@H](Cc1ccc(OP(=O)(O)O)cc1)C(=O)O

These compounds were tested against Tyrosine-protein kinase Lck (Homo sapiens, UniProt P06239) (assay: Inhibition of binding to p56 Lck tyrosine kinase SH2 domain).
Chain of Tyrosine-protein kinase Lck (P06239 whole entry, the tested form may be a part): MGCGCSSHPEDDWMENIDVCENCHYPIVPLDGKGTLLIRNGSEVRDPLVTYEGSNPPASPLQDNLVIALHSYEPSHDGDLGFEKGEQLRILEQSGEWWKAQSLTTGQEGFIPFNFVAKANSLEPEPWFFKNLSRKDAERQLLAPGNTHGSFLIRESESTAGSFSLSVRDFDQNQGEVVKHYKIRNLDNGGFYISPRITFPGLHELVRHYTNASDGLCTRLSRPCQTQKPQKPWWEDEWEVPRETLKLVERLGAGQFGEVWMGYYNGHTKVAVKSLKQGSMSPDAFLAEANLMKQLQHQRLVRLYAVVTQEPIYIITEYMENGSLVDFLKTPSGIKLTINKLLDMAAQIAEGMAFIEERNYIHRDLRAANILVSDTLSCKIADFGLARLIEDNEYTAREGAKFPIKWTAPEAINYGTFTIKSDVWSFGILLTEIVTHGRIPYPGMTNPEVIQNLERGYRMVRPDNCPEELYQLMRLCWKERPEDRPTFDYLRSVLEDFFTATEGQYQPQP

Compound	IC50 [µM]
O=C(/C=C/c1ccc(O)c(O)c1)O[C@H](Cc1ccc(O)c(O)c1)C(=O)O [ROSMARINIC ACID]	24
COC(=O)[C@@H](Cc1ccc(O)c(O)c1)N(C)C(=O)/C=C/c1ccc(O)c(O)c1	149
COC(=O)[C@@H](Cc1ccc(O)c(O)c1)NC(=O)/C=C/c1ccc(O)c(O)c1	121
CC[C@H](C)[C@H](NC(=O)[C@H](CCC(=O)O)NC(=O)[C@H](CCC(=O)O)NC(=O)[C@H](Cc1ccc(OP(=O)(O)O)cc1)NC(C)=O)C(=O)N[C@@H](CCC(=O)O)C(=O)O (Ac-[pY]EEIE-OH)	1.5
COC(=O)[C@@H](Cc1ccc(O)c(O)c1)/N=C(S)\C=C\c1ccc(O)c(O)c1	162
COC(=O)[C@@H](Cc1ccc(O)c(O)c1)NC/C=C/c1ccc(O)c(O)c1	> 500
COC(=O)[C@@H](Cc1ccc(O)c(O)c1)NC(=O)NCc1ccc(O)c(O)c1	98
O=C(/C=C/c1ccc(O)c(O)c1)N[C@H](Cc1ccc(O)c(O)c1)C(=O)O	20
